Experimental data published in PubChem BioAssay AID248 (DTP/NCI, 2004).
“And” between values parts separate entries of the source, which are not always exact repeats. Equal values may be shown once. Toxic doses and inconclusive results are not listed. Cut-off read from the data, not from the text of the source: active = T/C of 150% or more; inactive = T/C below 125%.

System: L1210 leukemia ip in BDF1 mice, survival T/C
Assay: NCI In Vivo Anticancer Drug Screen. Data for tumor model L1210 Leukemia (intraperitoneal) in B6D2F1 (BDF1) mice
Conditions: endpoint: mean survival time, higher = longer survival
Summary of the method: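 Survival endpoint. Drug-treated group vs vehicle group, expressed as T divided by C. Tumor passaged by transplantation.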

[1] = dose: 50.0 mg/kg/injection, schedule: Q01DX001 (ip), vehicle: saline
[2] = dose: 50.0 mg/kg/injection, schedule: Q01DX009 (ip), vehicle: Klucel (hydroxypropylcellulose) (HPC)
[3] = dose: 100.0 mg/kg/injection, schedule: Q01DX001 (ip), vehicle: saline
[4] = dose: 100.0 mg/kg/injection, schedule: Q01DX009 (ip), vehicle: Klucel (hydroxypropylcellulose) (HPC)
[5] = dose: 200.0 mg/kg/injection, schedule: Q01DX001 (ip), vehicle: saline
[6] = dose: 200.0 mg/kg/injection, schedule: Q01DX009 (ip), vehicle: Klucel (hydroxypropylcellulose) (HPC)
[7] = dose: 400.0 mg/kg/injection, schedule: Q01DX001 (ip), vehicle: saline
[8] = dose: 100.0 mg/kg/injection, schedule: Q04DX003 (ip), vehicle: saline with Tween-80
[9] = dose: 200.0 mg/kg/injection, schedule: Q04DX003 (ip), vehicle: saline with Tween-80
[10] = dose: 400.0 mg/kg/injection, schedule: Q04DX003 (ip), vehicle: saline with Tween-80
[11] = dose: 100.0 mg/kg/injection, schedule: Q04DX002 (ip), vehicle: Klucel (hydroxypropylcellulose) (HPC)
[12] = dose: 200.0 mg/kg/injection, schedule: Q04DX002 (ip), vehicle: Klucel (hydroxypropylcellulose) (HPC)
[13] = dose: 100.0 mg/kg/injection, schedule: Q01DX001 (ip), vehicle: carboxymethylcellulose (CMC)
[14] = dose: 200.0 mg/kg/injection, schedule: Q01DX001 (ip), vehicle: carboxymethylcellulose (CMC)
[15] = dose: 400.0 mg/kg/injection, schedule: Q01DX001 (ip), vehicle: carboxymethylcellulose (CMC)
[16] = dose: 200.0 mg/kg/injection, schedule: Q04DX003 (ip), vehicle: saline
[17] = dose: 400.0 mg/kg/injection, schedule: Q04DX003 (ip), vehicle: saline
[18] = dose: 100.0 mg/kg/injection, schedule: Q01DX001 (ip), vehicle: saline with Tween-80
[19] = dose: 200.0 mg/kg/injection, schedule: Q01DX001 (ip), vehicle: saline with Tween-80
[20] = dose: 400.0 mg/kg/injection, schedule: Q01DX001 (ip), vehicle: saline with Tween-80

Measured: T/C

CN=NNc1ccc(C)cc1
inactive: dose: 25.0 mg/kg/injection, schedule: Q01DX009 (ip), vehicle: Klucel (hydroxypropylcellulose) (HPC) 89 % of control | [1] 108 % of control | [2] 105 % of control and 117 % of control | [3] 108 % of control | [4] 102 % of control and 120 % of control | dose: 150.0 mg/kg/injection, schedule: Q01DX009 (ip), vehicle: Klucel (hydroxypropylcellulose) (HPC) 113 % of control | [5] 116 % of control | [6] 99 % of control and 91 % of control

CCCCCCCCCCCCCCCCCC(S(=O)(=O)CC)S(=O)(=O)CC
inactive: dose: 100.0 mg/kg/injection, schedule: Q04DX003 (ip), vehicle: Klucel (hydroxypropylcellulose) (HPC) 93 % of control | dose: 200.0 mg/kg/injection, schedule: Q04DX003 (ip), vehicle: Klucel (hydroxypropylcellulose) (HPC) 93 % of control | dose: 400.0 mg/kg/injection, schedule: Q04DX003 (ip), vehicle: Klucel (hydroxypropylcellulose) (HPC) 90 % of control

CCOC(=O)CNN
inactive: dose: 4.0 mg/kg/injection, schedule: Q01DX009 (ip), vehicle: saline 93 % of control | dose: 8.0 mg/kg/injection, schedule: Q01DX009 (ip), vehicle: saline 108 % of control | dose: 16.0 mg/kg/injection, schedule: Q01DX009 (ip), vehicle: saline 103 % of control | dose: 28.0 mg/kg/injection, schedule: Q01DX001 (ip), vehicle: saline 101 % of control | dose: 56.0 mg/kg/injection, schedule: Q01DX001 (ip), vehicle: saline 108 % of control | dose: 112.0 mg/kg/injection, schedule: Q01DX001 (ip), vehicle: saline 114 % of control

CC(=O)SCCC(=O)O
inactive: dose: 8.25 mg/kg/injection, schedule: Q01DX009 (ip), vehicle: saline 94 % of control | dose: 12.5 mg/kg/injection, schedule: Q01DX009 (ip), vehicle: saline 92 % of control | dose: 18.75 mg/kg/injection, schedule: Q01DX009 (ip), vehicle: saline 103 % of control

O=c1[nH][nH]c2ccccc12
inactive: dose: 31.2 mg/kg/injection, schedule: Q01DX Z (ip), vehicle: other 88 % of control | dose: 125.0 mg/kg/injection, schedule: Q01DX Z (ip), vehicle: other 88 % of control | dose: 250.0 mg/kg/injection, schedule: Q01DX Z (ip), vehicle: other 92 % of control

CCOc1ccc(/C=N/NC(=O)CC2CCCCC2)cc1OC
inactive: dose: 100.0 mg/kg/injection, schedule: Q01DX009 (ip), vehicle: saline with Tween-80 90 % of control | dose: 200.0 mg/kg/injection, schedule: Q01DX009 (ip), vehicle: saline with Tween-80 88 % of control | dose: 400.0 mg/kg/injection, schedule: Q01DX009 (ip), vehicle: saline with Tween-80 90 % of control

O=C(O)C1=C(C(=O)O)C2C=CC1N2Cc1ccccc1
inactive: dose: 100.0 mg/kg/injection, schedule: Q01DX001 (ip), vehicle: other 96 % of control | dose: 200.0 mg/kg/injection, schedule: Q01DX001 (ip), vehicle: other 102 % of control

COc1ccccc1NC(=O)C(C(C)=O)C(c1cccc([N+](=O)[O-])c1)C(C(C)=O)C(=O)Nc1ccccc1OC (configuration not stated)
inactive: [3] 96 % of control | [5] 96 % of control | [7] 89 % of control

CN(C)CCCNc1c2ccccc2nc2ccccc12
inactive: dose: 5.0 mg/kg/injection, schedule: Q01DX001 (ip), vehicle: saline 109 % of control | dose: 10.0 mg/kg/injection, schedule: Q01DX001 (ip), vehicle: saline 104 % of control | dose: 20.0 mg/kg/injection, schedule: Q01DX001 (ip), vehicle: saline 98 % of control | dose: 40.0 mg/kg/injection, schedule: Q01DX001 (ip), vehicle: saline 91 % of control

CCC(c1ccccc1)c1nc2ccccc2c2ccccc12 (configuration not stated)
inactive: [2] 97 % of control | [4] 97 % of control | [6] 94 % of control

N#CCCC(=O)c1ccncc1
inactive: [8] 96 % of control | [9] 107 % of control | [10] 104 % of control

O=C1c2cccc3c([N+](=O)[O-])ccc(c23)C(=O)N1Cc1cccnc1
inactive: dose: 25.0 mg/kg/injection, schedule: Q04DX002 (ip), vehicle: Klucel (hydroxypropylcellulose) (HPC) 106 % of control | dose: 50.0 mg/kg/injection, schedule: Q04DX002 (ip), vehicle: Klucel (hydroxypropylcellulose) (HPC) 100 % of control | [11] 103 % of control and 86 % of control | [12] 101 % of control

CC(C)CN(CC(C)C)C(=O)CCl
inactive: [13] 106 % of control

O=c1c([N+](=O)[O-])c[nH]c2cc(Cl)ccc12
inactive: [1] 92 % of control | [3] 101 % of control | [5] 103 % of control | [7] 97 % of control

C/C(=N\O)C1(C)CC=CCC1CO (configuration not stated)
inactive: [8] 101 % of control | [9] 101 % of control | [10] 96 % of control

O=C(N/N=C/c1ccc(Cl)c([N+](=O)[O-])c1)C(O)(c1ccccc1)c1ccccc1
inactive: [13] 103 % of control | [14] 95 % of control | [15] 101 % of control

COC(OC)/C(C)=N/NC(N)=O
inactive: [13] 88 % of control | [14] 116 % of control | [15] 108 % of control

CN(C)C1=NC(=O)C(c2ccccc2)O1 (configuration not stated)
inactive: dose: 25.0 mg/kg/injection, schedule: Q01DX009 (ip), vehicle: saline 104 % of control | dose: 50.0 mg/kg/injection, schedule: Q01DX009 (ip), vehicle: saline 111 % of control | dose: 50.0 mg/kg/injection, schedule: Q04DX003 (ip), vehicle: saline 101 % of control | dose: 100.0 mg/kg/injection, schedule: Q01DX009 (ip), vehicle: saline 111 % of control | dose: 200.0 mg/kg/injection, schedule: Q01DX009 (ip), vehicle: saline 101 % of control | [16] 100 % of control | [17] 100 % of control

O=C(Nc1ccc(C2=NCCN2)cc1)c1c(F)c(F)c(C(=O)Nc2ccc(C3=NCCN3)cc2)c(F)c1F
inactive: dose: 1.87 mg/kg/injection, schedule: Q01DX015 (ip), vehicle: methylcellulose (MC) 103 % of control | dose: 3.75 mg/kg/injection, schedule: Q01DX015 (ip), vehicle: methylcellulose (MC) 101 % of control | dose: 7.5 mg/kg/injection, schedule: Q01DX015 (ip), vehicle: methylcellulose (MC) 121 % of control | dose: 37.0 mg/kg/injection, schedule: Q01DX015 (ip), vehicle: methylcellulose (MC) 95 % of control

CCCC(C)CC(=O)CC(C)=O (configuration not stated)
inactive: [18] 93 % of control | [19] 95 % of control | [20] 95 % of control

CCNS(=O)(=O)c1ccc(C(N)=S)cc1
inactive: [18] 100 % of control | [19] 97 % of control | [20] 98 % of control

C[n+]1c(-c2ccc(Cl)c(Cl)c2)c2cc([N+](=O)[O-])ccc2c2ccccc21
inactive: dose: 100.0 mg/kg/injection, schedule: Q04DX003 (ip), vehicle: saline 95 % of control | [16] 93 % of control | [17] 97 % of control

CCCCCCCCOC(=O)c1ccc2c(c1)Nc1cc3ccccc3cc1N2
inactive: [11] 105 % of control | [12] 101 % of control | dose: 400.0 mg/kg/injection, schedule: Q04DX002 (ip), vehicle: Klucel (hydroxypropylcellulose) (HPC) 92 % of control
